{
  "source": "patent US20220304950A1",
  "about": "“[…] THE TREATMENT OF PATIENTS WITH MAJOR DEPRESSIVE DISORDER, INCLUDING SUICIDALITY” (JANSSEN PHARMACEUTICALS, INC., priority 2019, published 2022)",
  "assay_type_in_all_cases": "in vivo, human",
  "key": {"[1]": {"system": "adult patients with MDD assessed to be at imminent risk for suicide", "experiment": "Treatment disposition, Study 2 (Example 5)", "settings": "Esk 84 mg + SOC, double-blind phase, all randomized", "protocol": "A total of 273 subjects were screened across 50 sites in 12 countries throughout the study period. Of those, 230 subjects were randomized to 1 of 2 treatment groups in a 1:1 ratio (115 in esketamine 84 mg+SOC and 115 in placebo+SOC). Randomization was stratified by study center and by the physician's assessment of the subject's need of standard of care antidepressant treatment (i.e., antidepressant monotherapy or an antidepressant plus augmentation therapy); the standard of care was determined prior to randomization on Day 1. […] The mean age was 40.8 years, ranging from 18 to 64 years."}, "[2]": {"system": "adult patients with MDD assessed to be at imminent risk for suicide", "experiment": "CGI-SS-R (SIBAT), Study 2 (Example 5)", "settings": "24 hours post first dose", "source_text": "The SIBAT is a suicide assessment tool that captures suicidal ideation and behavior(s) as reported by patients and reviewed by clinicians permitting efficient collection and documentation of clinical impression of severity of suicidality and imminent and long-term suicide risk and treatment plans.\nThe CGI-SS-R rating is scored on a 7-point scale from 0 (normal, not at all suicidal) to 6 (among the most extremely suicidal patients) and will be based on the totality of information available to the clinician, including information from the SIBAT. The CGI-SS-R summarizes the clinician's overall impression of severity of suicidality and will be used to assess the key secondary endpoint in this study. This rating operates like numerous other CGI-severity scales that have been used in other psychiatric studies. These instruments have shown clinical validity and sensitivity to change.\nKey secondary efficacy variable: Change in CGI-SS-R from baseline to 24 hours post first dose (Day 2). The CGI-SS-R, derived from the Suicidal Ideation and Behavior Assessment Tool (SIBAT) rating is scored on a 7-point scale from 0 (normal, not at all suicidal) to 6 (among the most extremely suicidal patients)."}, "[3]": {"system": "adult patients with MDD assessed to be at imminent risk for suicide", "experiment": "MADRS total score, Study 1 (Example 4)", "settings": "for MADRS total score change, Diff. of LS Means (SE) vs placebo + SOC: ANCOVA LOCF; for MADRS total score change, LS mean difference Testing-Reference (MMRM): Esk 84 mg + SOC minus placebo + SOC; for MADRS total score, change from baseline to Day 2 (LOCF), mean (SD): negative = improvement", "source_text": "The primary efficacy evaluation will be the MADRS total score. The MADRS will be performed using the Structured Interview Guide for the Montgomery Asberg Depression Rating Scale. The MADRS is a clinician-rated scale designed to be used in subjects with MDD to measure depression severity and detect changes due to antidepressant treatment. The test consists of 10 items, each of which is scored from 0 (item not present or normal) to 6 (severe or continuous presence of the symptoms), for a total possible score of 60. Higher scores represent a more severe condition. The MADRS evaluates apparent sadness, reported sadness, inner tension, sleep, appetite, concentration, lassitude, interest level, pessimistic thoughts, and suicidal thoughts.\nThe typical recall period for the MADRS is 7 days. In this study, the MADRS will also be administered using a since last assessment recall, a 4-hour recall on Day 1 and Day 25 postdose, and a 24-hour recall on Day 2. For the MADRS performed at 4 hours postdose on Days 1 and 25, the MADRS scores for the sleep item recorded predose on the same day will be carried forward.\nThe primary efficacy analyses are based on the full efficacy analysis set which is defined as all randomized subjects who received at least 1 dose of double-blind study medication and have both a baseline and a post-baseline evaluation for the Montgomery Xsberg Depression Rating Scale (MADRS) total score or Clinical Global Impression-Severity of Suicidality-Revised (CGI-SS-R).\nMADRS consists of 10 items that cover all of the core depressive symptoms: each item is scored from 0 (symptom is not present or is normal) to 6 (severe or continuous presence of the symptom). A total score (0 to 60) is calculated by summing the scores of all 10 items. A higher score represents a more severe condition."}, "[4]": {"system": "adult patients with MDD assessed to be at imminent risk for suicide", "experiment": "Treatment disposition, Study 1 (Example 4)", "settings": "Esk 84 mg + SOC, double-blind phase, all randomized", "protocol": "A total of 270 subjects were screened across 51 sites in 10 countries throughout the study period. Of those, 226 subjects were randomized to 1 of 2 treatment groups in a 1:1 ratio (114 in esketamine 84 mg+SOC and 112 in placebo+SOC). The randomization was stratified by study center and by the physician's assessment of the participant's need of standard of care antidepressant treatment prior to randomization on Day 1 (i.e., antidepressant monotherapy or antidepressant plus augmentation therapy)."}, "[5]": {"settings": "Esk 84 mg + SOC, 24 hours post first dose"}, "[6]": {"settings": "Esk 84 mg + SOC, 24 hours post first dose, full efficacy analysis set"}},
  "data": [
    {"smiles": "CN[C@]1(c2ccccc2Cl)CCCCC1=O", "note": "[esketamine, (S)-2-(2-chlorophenyl)-2-(methylamino)cyclohexanone]", "values": [
      {"measurement": "Discontinuation due to adverse event, subjects %", "setting": "[1]", "value": 7.8, "unit": "%"},
      {"measurement": "Discontinuation due to adverse event, subjects n", "setting": "[1]", "value": 9},
      {"measurement": "CGI-SS-R change, Hodges-Lehmann estimate (95% CI) of the difference vs placebo+SOC", "setting": "[2]", "value": "0.0 (0.00; 0.00)"},
      {"measurement": "CGI-SS-R, change from baseline to Day 2 (LOCF), median (range)", "setting": "[2]; esketamine 84 mg+SOC", "value": "−1.0 (−6; 2)"},
      {"measurement": "Effect size for the primary endpoint (MADRS)", "setting": "[3]; 24 hours post first dose", "value": 0.34},
      {"measurement": "MADRS total score change, Diff. of LS Means (SE) vs placebo + SOC", "setting": "[3]; 24 hours post first dose", "value": "−3.8 (1.39)"},
      {"measurement": "MADRS total score change, Diff. of LS Means (SE) vs placebo + SOC", "setting": "[3]; 24 hours post first dose, listed as Esk", "value": "−3.8"},
      {"measurement": "MADRS total score, mean change from baseline (SD)", "setting": "[3]; ESK+SOC", "value": "−16.4 (11.95)"},
      {"measurement": "MADRS total score change, LS mean difference Testing-Reference (MMRM)", "setting": "[3]; Day 1 (DB): 4 H", "value": "−2.6"},
      {"measurement": "MADRS total score change, LS mean difference Testing-Reference (MMRM)", "setting": "[3]; Day 2 (DB)", "value": "−3.7"},
      {"measurement": "MADRS total score change, LS mean difference Testing-Reference (MMRM)", "setting": "[3]; Day 4 (DB)", "value": "−4.6"},
      {"measurement": "MADRS total score change, LS mean difference Testing-Reference (MMRM)", "setting": "[3]; Day 8 (DB)", "value": "−2.5"},
      {"measurement": "MADRS total score change, LS mean difference Testing-Reference (MMRM)", "setting": "[3]; Day 11 (DB)", "value": "−2.8"},
      {"measurement": "MADRS total score change, LS mean difference Testing-Reference (MMRM)", "setting": "[3]; Day 15 (DB)", "value": "−1.5"},
      {"measurement": "MADRS total score change, LS mean difference Testing-Reference (MMRM)", "setting": "[3]; Day 18 (DB)", "value": "−2.3"},
      {"measurement": "MADRS total score change, LS mean difference Testing-Reference (MMRM)", "setting": "[3]; Day 22 (DB)", "value": "−3.2"},
      {"measurement": "MADRS total score change, LS mean difference Testing-Reference (MMRM)", "setting": "[3]; Day 25 (DB): 4 H", "value": "−4.1"},
      {"measurement": "MADRS total score change, LS mean difference Testing-Reference (MMRM)", "setting": "[3]; Day 25 (DB): predose", "value": "−2.6"},
      {"measurement": "MADRS total score, change from baseline to Day 2 (LOCF), median", "setting": "[3]; [5]", "value": "−15.0"},
      {"measurement": "MADRS total score, Day 2 (DB) LOCF, mean", "setting": "[3]; [6]", "value": 24.7},
      {"measurement": "MADRS total score, Day 2 (DB) LOCF, median", "setting": "[3]; [6]", "value": 26.0},
      {"measurement": "MADRS total score, change from baseline to Day 2 (LOCF), mean (SD)", "setting": "[3]; [5]", "value": "−16.4 (11.95)"},
      {"measurement": "MADRS total score, change from baseline to Day 2 (LOCF), mean (SD)", "setting": "[3]; Esk 84 mg + SOC, 24 hours post first dose, listed as Esk", "value": "−16.4"},
      {"measurement": "MADRS total score change from baseline, LS mean (MMRM observed case)", "setting": "[3]; Esk 84 mg + SOC, Day 1 (DB): 4 H", "value": "−12.8"},
      {"measurement": "MADRS total score change from baseline, LS mean (MMRM observed case)", "setting": "[3]; Esk 84 mg + SOC, Day 2 (DB)", "value": "−15.7"},
      {"measurement": "MADRS total score change from baseline, LS mean (MMRM observed case)", "setting": "[3]; Esk 84 mg + SOC, Day 4 (DB)", "value": "−18.3"},
      {"measurement": "MADRS total score change from baseline, LS mean (MMRM observed case)", "setting": "[3]; Esk 84 mg + SOC, Day 8 (DB)", "value": "−19.0"},
      {"measurement": "MADRS total score change from baseline, LS mean (MMRM observed case)", "setting": "[3]; Esk 84 mg + SOC, Day 11 (DB)", "value": "−20.8"},
      {"measurement": "MADRS total score change from baseline, LS mean (MMRM observed case)", "setting": "[3]; Esk 84 mg + SOC, Day 15 (DB)", "value": "−21.6"},
      {"measurement": "MADRS total score change from baseline, LS mean (MMRM observed case)", "setting": "[3]; Esk 84 mg + SOC, Day 18 (DB)", "value": "−23.1"},
      {"measurement": "MADRS total score change from baseline, LS mean (MMRM observed case)", "setting": "[3]; Esk 84 mg + SOC, Day 22 (DB)", "value": "−23.5"},
      {"measurement": "MADRS total score change from baseline, LS mean (MMRM observed case)", "setting": "[3]; Esk 84 mg + SOC, Day 25 (DB): 4 H", "value": "−28.8"},
      {"measurement": "MADRS total score change from baseline, LS mean (MMRM observed case)", "setting": "[3]; Esk 84 mg + SOC, Day 25 (DB): predose", "value": "−24.3"},
      {"measurement": "Discontinuation due to adverse event, subjects %", "setting": "[4]", "value": 4.4, "unit": "%"},
      {"measurement": "Discontinuation due to adverse event, subjects n", "setting": "[4]", "value": 5}
    ]}
  ]
}
